Source: the NIST ThermoML archive (doi:10.1016/j.jct.2013.12.028)
± gives the expanded uncertainty stated by the source.

Assay: mn = molality of the nth substance listed, in mol/kg
Conditions: 101.3 kPa, Liquid, Vibrating tube method

C1CCOC1 [tetrahydrofuran] + O
mass density [kg/m3]
Conditions | 278.15 K | 283.15 K | 288.15 K | 293.15 K | 298.15 K | 303.15 K | 308.15 K | 313.15 K | 318.15 K
m1 = 0.06882 | 999.729 ± 0.11 | 999.439 ± 0.11 | 998.826 ± 0.11 | 997.918 ± 0.11 | 996.743 ± 0.11 | 995.331 ± 0.11 | 993.701 ± 0.11 | 991.864 ± 0.11 | 989.851 ± 0.11
m1 = 0.1028 | 999.619 ± 0.11 | 999.317 ± 0.11 | 998.697 ± 0.11 | 997.78 ± 0.11 | 996.596 ± 0.11 | 995.178 ± 0.11 | 993.538 ± 0.11 | 991.694 ± 0.11 | 989.672 ± 0.11
m1 = 0.2158 | 999.282 ± 0.11 | 998.938 ± 0.11 | 998.289 ± 0.11 | 997.343 ± 0.11 | 996.13 ± 0.11 | 994.687 ± 0.11 | 993.021 ± 0.11 | 991.146 ± 0.11 | 989.097 ± 0.11
m1 = 0.3098 | 999.036 ± 0.11 | 998.655 ± 0.11 | 997.977 ± 0.11 | 997.003 ± 0.11 | 995.764 ± 0.11 | 994.293 ± 0.11 | 992.601 ± 0.11 | 990.703 ± 0.11 | 988.631 ± 0.11
m1 = 0.4199 | 998.781 ± 0.11 | 998.36 ± 0.11 | 997.637 ± 0.11 | 996.629 ± 0.11 | 995.359 ± 0.11 | 993.859 ± 0.11 | 992.137 ± 0.11 | 990.208 ± 0.11 | 988.102 ± 0.11
m1 = 0.5704 | 998.489 ± 0.11 | 997.999 ± 0.11 | 997.225 ± 0.11 | 996.162 ± 0.11 | 994.84 ± 0.11 | 993.293 ± 0.11 | 991.526 ± 0.11 | 989.552 ± 0.11 | 987.402 ± 0.11
m1 = 0.7194 | 998.255 ± 0.11 | 997.698 ± 0.11 | 996.863 ± 0.11 | 995.741 ± 0.11 | 994.361 ± 0.11 | 992.771 ± 0.11 | 990.96 ± 0.11 | 988.935 ± 0.11 | 986.735 ± 0.11
m1 = 0.8767 | 998.059 ± 0.11 | 997.427 ± 0.11 | 996.519 ± 0.11 | 995.333 ± 0.11 | 993.894 ± 0.11 | 992.247 ± 0.11 | 990.382 ± 0.11 | 988.304 ± 0.11 | 986.049 ± 0.11
m1 = 1.04 | 997.903 ± 0.11 | 997.18 ± 0.11 | 996.19 ± 0.11 | 994.935 ± 0.11 | 993.435 ± 0.11 | 991.725 ± 0.11 | 989.802 ± 0.11 | 987.671 ± 0.11 | 985.363 ± 0.11
m1 = 1.174 | 997.793 ± 0.11 | 997.013 ± 0.11 | 995.964 ± 0.11 | 994.643 ± 0.11 | 993.087 ± 0.11 | 991.324 ± 0.11 | 989.348 ± 0.11 | 987.162 ± 0.11 | 984.803 ± 0.11
m1 = 1.262 | 997.732 ± 0.11 | 996.903 ± 0.11 | 995.814 ± 0.11 | 994.456 ± 0.11 | 992.856 ± 0.11 | 991.065 ± 0.11 | 989.06 ± 0.11 | 986.838 ± 0.11 | 984.443 ± 0.11
m1 = 1.406 | 997.65 ± 0.11 | 996.744 ± 0.11 | 995.581 ± 0.11 | 994.16 ± 0.11 | 992.503 ± 0.11 | 990.648 ± 0.11 | 988.583 ± 0.11 | 986.311 ± 0.11 | 983.864 ± 0.11
m1 = 1.576 | 997.559 ± 0.11 | 996.552 ± 0.11 | 995.314 ± 0.11 | 993.821 ± 0.11 | 992.084 ± 0.11 | 990.16 ± 0.11 | 988.025 ± 0.11 | 985.688 ± 0.11 | 983.169 ± 0.11
